Assay results published in patent publication US20090264384A1, “INDOLE, BENZIMIDAZOLE, AND BENZOLACTAM BORONIC ACID COMPOUNDS, ANALOGS THEREOF AND METHODS OF USE THEREOF” (Nuada, Inc., priority 2004, published 2009).

Legend:
[1] = Various In Vitro Cell Biology Assays (Example 41, Tables 23-26); format: cell-based; conditions: PBMC, 24 h, IL-1 □ secretion (h) (PBMC), LPS 1 μg/ml, 24 h; 3×10^−6 M; read-out: % Inhibition of Control Values
Protocol: In each experiment, the respective reference compound was tested concurrently with the test compounds in order to assess the assay suitability. It was tested at several concentrations (for IC50 value determination).
The test compounds were assayed at 3×10^−6 M.
Results. The results are expressed as a percent of control values and as a percent inhibition of control values obtained in the presence of the test compounds.
The IC50 values (concentration causing a half-maximal inhibition of control values) and Hill coefficients (nH) were determined by non-linear regression analysis of the inhibition curves using Hill equation curve fitting, a summary of the data is shown in Table 26. The IC50 value for each reference compound is indicated was determined (data not shown) and was within accepted limits of the historic average ±0.5 log units.

[2] = system: colitis provoked by trinitrobenzene sulphonic acid (TNBS); assay: Rat model of colitis provoked by TNBS, 3 days, treatment from Day −1 (CCI-7308); format: in vivo; conditions: for attenuation of TNBS-induced fall in body weight (% change in body weight at Day 0) / reduction in area of macroscopic colonic injury / reduction in colonic MPO activity / reduction in colon weight / reduction in colonic TNF-α levels: vs CMC group; for reduction in area of macroscopic colonic injury: 72 h after TNBS
From the text: In the study, colonic macroscopic injury has been assessed, as has colonic weight as a reflection of colonic oedema, along with determination of MPO activity (Bradley et al, 1982) as an index of white cell infiltration for the evaluation of tissue injury. The methods and protocol used were substantially similar to those in Example 39, with some differences described below. TNBS Challenge—Male Wistar rats (270-330 g) were randomised into groups of 10-11 before commencement of the study. The following primary parameters were measured in the study: In addition, the weight of the colonic segment was assessed as an indirect and non-specific marker of oedema. The body weight of the animals was also determined and expressed as % change from the day of challenge. Treatments. All challenged groups were dosed orally twice daily from Day −1. The groups for study were: Colon homogenates for cytokine measurements. […] Tissue homogenates were lysed for 30 min. on ice, and then centrifuged (10 min., 14, 000×g). The aliquots of the supernatant were stored at −20° C. until use (Ten Hove et al., 2001). Tumour Necrosis Factor-a Activity. The TNF-α levels were determined with quantitative TNF-α solid-phase Enzyme Linked ImmunoSorbent Assay (ELISA), which is based on the sandwich principle (HyCult biotechnology b. V;. Cat number: […] At the end of the ELISA assay, the samples were measured spectrophotometrically (Benchmark Microplate reader, Bio-Rad Lab; λ=450 nm). The samples were diluted 2 or 4 times with the sample buffer included in the kit. The TNF-α values were expressed as pg/mg protein. This commercially available kit (Hycult Biotechnology b.v. Uden, The Netherlands. Catalogue number: […]

[3] = system: chronic colitis provoked by trinitrobenzene sulphonic acid (TNBS); assay: Rat model of chronic colitis provoked by TNBS over 14 days, treatment from Day 1; format: in vivo; conditions: for macroscopic Damage Score / reduction in colon weight / reduction in colonic MPO activity / reduction in colonic TNF-α levels / reduction in colonic lesion area (% of the total area measured): Day 14; for reduction in colon weight / reduction in colonic MPO activity / reduction in colonic TNF-α levels / reduction in colonic lesion area (% of the total area measured) / attenuation of TNBS-induced fall in body weight (% change of body weight at Day −1): vs CMC group; for attenuation of TNBS-induced fall in body weight (% change of body weight at Day −1): over 14 days
From the text: In the chronic model of colitis, assessment of the colonic inflammation is made 14 days or longer, after the intracolonic challenge with TNBS (Boughton-Smith et al, 1988a, 1988b; Wallace et al, 1989; Rachmilewitz et al, 1989; Wallace and Keenan, 1990; Ameho et al, 1987; Sans et al, 1999; Sun et al, 2001; Maric et al, 2003; Moreels et al, 2004; Gonzalez et al, 2004). This model allows treatment with experimental agents to commence following the establishment of the colonic injury, typically 24 hours after the TNBS challenge (Galvez et al, 2000, Villegas, 2003, Gonzalez et al, 2004). The model should therefore identify the ability of the experimental compounds to accelerate the diminution of the inflammatory response and to promote healing of the colonic lesions. This model thus has relevance additional to the acute model, as the clinical correlate is the therapeutic intervention in patients with existing IBD not in remission or with flare-up, to reduce the crisis. This contrasts with the acute TNBS model where the compounds are administered one or two days prior to challenge, the clinical correlate being the use of prophylactic therapy to prevent flare-up and maintain remission in IBD patients.
In this current study, the low intracolonic challenge concentration of TNBS used in the acute studies was also used for the chronic study over a 14 day period. This concentration and timing was based on the findings from pilot studies where a range of concentrations of TNBS and treatment conditions were evaluated over a 14 day period. […].
The methods and protocol used were substantially similar to those in Example 39-40, with some differences described below.
TNBS Challenge. Male Wistar rats (average body weight, 210 g) were randomised into groups before commencement of the study. In all groups, including the non-challenged and non-treated absolute control group, food was withdrawn for 12 h before TNBS administration (i.e. overnight on Day −1), but the rats were allowed free access to drinking water.
On the morning of the day of challenge (Day 0, between 9.00 and 1 1.00 a.m.), the rats were transiently anaesthetised with ether and the TNBS solution (10 mg in 0.25 ml of 50% ethanol) was instilled approximately 6-8 cm into the colon using a soft plastic catheter inserted in the rat rectum. The rats were allowed to recover with free access to food and drinking water. At the end of the experiment, on the morning of Day 14, between 9.00 and 11.00), the colon was dissected, and the distal 8 cm photographed and immediately processed or stored appropriately for subsequent analyses.
The following primary parameters were measured in the study: macroscopic scoring of distal 8 cm of colon; myeloperoxidase levels in segments of distal 8 cm of colon; TNF-α levels in segments of distal 8 cm of colon.
In addition, the weight of the standard colonic segment was assessed as an indirect and non-specific marker of oedema. The body weight of the animals was also determined each evening of the study, starting on Day-1, and also on the morning of Day 14. The data is shown graphically as the % change from the weight on Day-1, prior to challenge.
Treatments. The TNBS challenged groups for study were: (a) Vehicle control 0.5% carboxy methyl cellulose (CMC) p.o., twice daily from Day; (b) CCI-7506 25 mg/kg, p.o., twice daily from Day 1 (50 mg/kg/day total); (c) CCI-7506 50 mg/kg, p.o., twice daily from Day 1 (100 mg/kg/day total); (d) CCI-7507 12.5 mg/kg, p.o., twice daily from Day 1 (25 mg/kg/day total); (e) CCI-7507 25 mg/kg, p.o., twice daily from Day 1(50 mg/kg/day total); […]; (g) Infliximab 3 mg/kg, single slow i.v. injection, on Day 1 and Day7.
The experimental compounds that were administered orally were given twice a day from Day 1, i.e. 24 h following TNBS administration, for the remainder of the 14 day experimental period. Infliximab was administered by slow i.v. injection of Day 1 and on Day 7. […]

[4] = 4 mg/kg/day p.o. in divided doses
[5] = 20 mg/kg/day p.o. in divided doses
[6] = 100 mg/kg/day p.o. in divided doses

## COc1ccc(-c2nc3ccccc3n2CCCCCB(O)O)cc1 [CCI-7308]
[1]
  inhibition at 3 µM: 68%
[2]; 4 mg/kg/day p.o. in divided doses b.i.d.
  attenuation of TNBS-induced fall in body weight (% change in body weight at Day 0): significantly different from the challenged CMC control group on Day 1
[2]; [4]
  reduction in area of macroscopic colonic injury: did not reach significance
  reduction in colonic MPO activity: significant (P<0.001) reduction in colonic MPO levels at all three dose levels
[2]; 20 mg/kg/day p.o. in divided doses b.i.d.
  attenuation of TNBS-induced fall in body weight (% change in body weight at Day 0): significantly different from the CMC group on Days 1, 2 and 3
[2]; [5]
  reduction in area of macroscopic colonic injury: statistically significant
  reduction in colon weight: statistically significant
  reduction in colonic MPO activity: significant (P<0.001) reduction in colonic MPO levels at all three dose levels
  reduction in colonic TNF-α levels: achieving significance
[2]; 100 mg/kg/day p.o. in divided doses b.i.d.
  attenuation of TNBS-induced fall in body weight (% change in body weight at Day 0): preventing the fall in body weight on all 3 days post-challenge
[2]; [6]
  reduction in area of macroscopic colonic injury: statistically significant
  reduction in colon weight: statistically significant
  reduction in colonic MPO activity: significant (P<0.001) reduction in colonic MPO levels at all three dose levels
  reduction in colonic TNF-α levels: achieving significance
[2]; preliminary indication, from comparison of molecular weights
  relative potency versus sulfasalazine in reducing macroscopic injury: ~2.5 times

## COc1ccc(-c2nc3ccccc3n2CCCCCB(O)O)cc1 [CCI-7507]
[3]; 25 mg/kg/day p.o. from Day 1
  macroscopic Damage Score: reduced the damage score
  reduction in colon weight: significantly reduced the colonic weight of the standard segment at both doses
  reduction in colonic MPO activity: significant and dose-dependent fall in the elevated MPO activity at both dose levels
  reduction in colonic TNF-α levels: caused a significant reduction in the elevated levels of TNF-α
  reduction in colonic lesion area (% of the total area measured): statistically significant for both doses
[3]; 25 mg/kg/day p.o. in divided doses from Day 1
  attenuation of TNBS-induced fall in body weight (% change of body weight at Day −1): significantly different from that in the CMC challenged group (P<0.05) on Days 2, 3, 4, 8, 9 and 10 post-challenge
[3]; 50 mg/kg/day p.o. from Day 1
  macroscopic Damage Score: reduced the damage score
  reduction in colon weight: significantly reduced the colonic weight of the standard segment at both doses
  reduction in colonic MPO activity: significant and dose-dependent fall in the elevated MPO activity at both dose levels
  reduction in colonic TNF-α levels: caused a significant reduction in the elevated levels of TNF-α
  reduction in colonic lesion area (% of the total area measured): statistically significant for both doses
[3]; 50 mg/kg/day p.o. in divided doses from Day 1
  attenuation of TNBS-induced fall in body weight (% change of body weight at Day −1): significantly different form the CMC group on all days from Day 2 to 10
